Measurements reported in patent publication US9926295B2, “Potent and selective inhibitors of hepatitis C virus” (Cocrystal Pharma, Inc., priority 2014, dated 2018).

Tests used:
Type in all cases: cell-based
[1] = system: HCV Replicon RNA (HCV 1b) in Huh 7 Clone B cells; experiment: HCV Replicon Assay; settings: Hepatitis C virus, 120 h, five days incubation
Protocol: Huh 7 Clone B cells containing HCV Replicon RNA would be seeded in a 96-well plate at 5000 cells/well, and the compounds tested at 10 μM in triplicate immediately after seeding. Following five days incubation (37° C., 5% CO2), total cellular RNA was isolated by using versaGene RNA purification kit from Gentra. Replicon RNA and an internal control (TaqMan rRNA control reagents, Applied Biosystems) were amplified in a single step multiplex Real Time RT-PCR Assay. The antiviral effectiveness of the compounds was calculated by subtracting the threshold RT-PCR cycle of the test compound from the threshold RT-PCR cycle of the no-drug control (ΔCt HCV). A ΔCt of 3.3 equals a 1-log reduction (equal to 90% less starting material) in Replicon RNA levels. The cytotoxicity of the compounds was also calculated by using the ΔCt rRNA values. 2′-C-Me-C was used as the positive control. To determine EC90 and IC50 values^2, ΔCt: values were first converted into fraction of starting material^3 and then were used to calculate the % inhibition.
• 1. Stuyver L et al., Ribonucleoside analogue that blocks replication or bovine viral diarrhea and hepatitis C viruses in culture. Antimicrob. Agents Chemother. 2003, 47, 244-254. • 2. Reed I J & Muench H, A simple method or estimating fifty percent endpoints. Am. J. Hyg. 27: 497, 1938. • 3. Applied Biosystems Handbook Median Effective concentrations (EC50) ranges against HCV 1b are as follow: A=[…] B=100-999 nM C=1-99 nM D=<1 nM

[2] = Cellular toxicity assay in human PBM cells; settings: read-out: Cytotoxicity (IC50 μM) PBM
Protocol: (§1) The toxicity of the compounds was assessed in Vero, human PBM, CEM (human lymphoblastoid), MT-2, and HepG2 cells, as described previously (see Schinazi R. F., Sommadossi J.-P., Saalmann V., Cannon D. L., Xie M.-Y., Hart G. C., Smith G. A. & Hahn E. F. Antimicrob. Agents Chemother. 1990, 34, 1061-67). Cycloheximide was included as positive cytotoxic control, and untreated cells exposed to solvent were included as negative controls. The cytotoxicity IC50 was obtained from the concentration-response curve using the median effective method described previously (see Chou T.-C. & Talalay P. Adv. Enzyme Regul. 1984, 22, 27-55; Belen'kii M. S. & Schinazi R. F. Antiviral Res. 1994, 25, 1-11).

[3] = Cellular toxicity assay in CEM cells; settings: human, CEM (human lymphoblastoid) cells, read-out: Cytotoxicity (IC50 μM) CEM
Protocol: as §1

[4] = Cellular toxicity assay in Vero cells; settings: African green monkey, read-out: Cytotoxicity (IC50 μM) Vero
Protocol: as §1

SMILES | EC50 ([1]; values in nM) [nM] | EC90 ([1]; values in nM) [nM] | IC50 [2] [µM] | IC50 [3] [µM] | IC50 [4] [µM] | EC50 ([1]; pM) [nM] | EC90 ([1]; pM) [nM]
COC(=O)N[C@H](C(=O)N1CCCC1c1nc(Cl)c(-c2ccc(-c3ccc(-c4cnc([C@@H]5C[C@H]([S+](C)[O-])CN5C(=O)[C@@H](NC(=O)OC)c5ccccc5)[nH]4)cc3)cc2)[nH]1)c1ccccc1 (stereo partly drawn) [Compound 44] | 0.2 | 1.1 | 89.7 | 3.6 | > 100 | – | –
COC(=O)N[C@H](C(=O)N1CCCC1c1ncc(-c2ccc(-c3ccc(-c4[nH]c([C@@H]5C[C@H](SC)CN5C(=O)[C@@H](NC(=O)OC)c5ccccc5)nc4Cl)cc3)cc2)[nH]1)c1ccccc1 (stereo partly drawn) [Compound 47] | – | – | > 100 | > 100 | > 100 | 0.004 | 0.0231
COC(=O)N[C@H](C(=O)N1CCCC1c1nc(Cl)c(-c2ccc(-c3ccc(-c4[nH]c([C@@H]5C[C@H](SC)CN5C(=O)[C@@H](NC(=O)OC)C(C)C)nc4Cl)cc3)cc2)[nH]1)C(C)C (stereo partly drawn) [Compound 49] | – | – | 24.3 | 2.5 | > 100 | 0.0034 | 0.0699
COC(=O)N[C@H](C(=O)N1CCCC1c1ncc(-c2ccc(-c3ccc(-c4[nH]c([C@@H]5C[C@H]([S+](C)[O-])CN5C(=O)[C@@H](NC(=O)OC)c5ccccc5)nc4Cl)cc3)cc2)[nH]1)c1ccccc1 (stereo partly drawn) [Compound 48] | 0.07 | 0.5 | 67.6 | 1.8 | > 100 | – | –
COC(=O)N[C@H](C(=O)N1CCCC1c1nc(Cl)c(-c2ccc(-c3ccc(-c4[nH]c([C@@H]5C[C@H]([S+](C)[O-])CN5C(=O)[C@@H](NC(=O)OC)c5ccccc5)nc4Cl)cc3)cc2)[nH]1)c1ccccc1 (stereo partly drawn) [Compound 52] | 0.06 | 0.2 | 83.9 | 7.1 | > 100 | – | –
COC(=O)N[C@H](C(=O)N1CCCC1c1ncc(-c2ccc(-c3ccc(-c4[nH]c([C@@H]5C[C@H]([S+](C)[O-])CN5C(=O)[C@@H](NC(=O)OC)C(C)C)nc4Cl)cc3)cc2)[nH]1)C(C)C (stereo partly drawn) [Compound 46] | 0.06 | 0.3 | 13.6 | 3.7 | 45.8 | – | –
COC(=O)N[C@H](C(=O)N1CCCC1c1nc(Cl)c(-c2ccc(-c3ccc(-c4cnc([C@@H]5C[C@H](SC)CN5C(=O)[C@@H](NC(=O)OC)C(C)C)[nH]4)cc3)cc2)[nH]1)C(C)C (stereo partly drawn) [Compound 42] | – | – | 60 | 3.1 | 34.5 | 0.0139 | 0.0263
COC(=O)N[C@H](C(=O)N1CCCC1c1nc(Cl)c(-c2ccc(-c3ccc(-c4[nH]c([C@@H]5C[C@H](SC)CN5C(=O)[C@@H](NC(=O)OC)c5ccccc5)nc4Cl)cc3)cc2)[nH]1)c1ccccc1 (stereo partly drawn) [Compound 51] | – | – | > 100 | > 100 | > 100 | 0.0077 | 0.0191
COC(=O)N[C@H](C(=O)N1CCCC1c1ncc(-c2ccc(-c3ccc(-c4[nH]c([C@@H]5C[C@H](SC)CN5C(=O)[C@@H](NC(=O)OC)C(C)C)nc4Cl)cc3)cc2)[nH]1)C(C)C (stereo partly drawn) [Compound 45] | – | – | 27.2 | 5.2 | 14.4 | 0.0163 | 0.0316
